Literature values in patent publication US20120114757A1, “PARTICLES COMPRISING DROSPIRENONE ENCAPSULATED IN A POLYMER” (BAYER PHARMA AKTIENGESELLSCHAFT, priority 2009, published 2012).

## C[C@]12CCC(=O)C=C1[C@@H]1C[C@@H]1[C@H]1[C@@H]3[C@@H]4C[C@@H]4[C@@]4(CCC(=O)O4)[C@@]3(C)CC[C@@H]12 [Drospirenone, 6β,7β;15β,16β-dimethylene-3-oxo-17α-pregn-4-ene-21,17-carbolactone]
Acid conditions
  stability under acid conditions: rearranged to an inactive isomer
Various pH values
  solubility in water and aqueous buffers: sparingly soluble
